ChEMBL document CHEMBL1156506, “Changes to the HIV long terminal repeat and to HIV integrase differentially impact HIV integrase assembly, activity, and the binding of strand transfer inhibitors” (J Biol Chem, 2007)

Experiments:
Details in all cases: tested as the 3H-labelled form
[1] = tested on: Human immunodeficiency virus type 1 integrase (Human immunodeficiency virus 1), Q7ZJM1 [Q148R]; assay: Inhibition of HIV recombinant integrase Q148R mutant assessed as strand transfer activity using U5 GTdA LTR by scintillation proximity assay relative to wild type LTR; design: scale not given: the % may be the effect or the level left
[2] = tested on: Human immunodeficiency virus; assay: Inhibition of HIV wild type integrase assessed as strand transfer activity using U5 GTTA LTR by scintillation proximity assay relative to wild type LTR relative to wild type LTR; design: scale not given: the % may be the effect or the level left
[3] = tested on: Human immunodeficiency virus; assay: Binding affinity to HIV wild type integrase using U5 GTTA LTR relative to wild type LTR
[4] = tested on: Human immunodeficiency virus; assay: (§1) Binding affinity to HIV wild type integrase using U5 GTAA LTR relative to wild type LTR
[5] = tested on: Human immunodeficiency virus; assay: (§2) Inhibition of HIV wild type integrase assessed as strand transfer activity using U5 GTAA LTR by scintillation proximity assay relative to wild type LTR; design: scale not given: the % may be the effect or the level left
[6] = tested on: Human immunodeficiency virus type 1 integrase (Human immunodeficiency virus 1), Q7ZJM1 [N155H]; assay: Inhibition of HIV recombinant integrase N155H mutant assessed as strand transfer activity using U5 INTCA LTR by scintillation proximity assay relative to wild type LTR; design: scale not given: the % may be the effect or the level left
[7] = tested on: Human immunodeficiency virus; assay: Binding affinity to HIV wild type integrase using U5 GTGT LTR relative to wild type LTR
[8] = tested on: Human immunodeficiency virus type 1 integrase (Human immunodeficiency virus 1), Q7ZJM1 [N155H]; assay: Inhibition of HIV recombinant integrase N155H mutant assessed as specific strand transfer activity using U5 GdCA LTR by scintillation proximity assay relative to wild type LTR; design: scale not given: the % may be the effect or the level left
[9] = tested on: Human immunodeficiency virus; assay: as §1; remark: listed apart in the source
[10] = tested on: Human immunodeficiency virus; assay: Binding affinity to HIV wild type integrase using U5 GTAC LTR relative to wild type LTR
[11] = tested on: Human immunodeficiency virus; assay: Inhibition of HIV wild type integrase assessed as specific strand transfer activity using U5 GdCA LTR by scintillation proximity assay relative to wild type LTR; design: scale not given: the % may be the effect or the level left
[12] = tested on: Human immunodeficiency virus type 1 integrase (Human immunodeficiency virus 1), Q7ZJM1 [Q148R]; assay: Inhibition of HIV recombinant integrase Q148R mutant assessed as strand transfer activity using U5 ApTCA LTR by scintillation proximity assay relative to wild type LTR; design: scale not given: the % may be the effect or the level left
[13] = tested on: Human immunodeficiency virus type 1 integrase (Human immunodeficiency virus 1), Q7ZJM1 [Q148R]; assay: Inhibition of U5 GTCA LTR HIV recombinant integrase Q148R mutant assessed as specific strand transfer activity using by scintillation proximity assay relative to wild type LTR; design: scale not given: the % may be the effect or the level left
[14] = tested on: Human immunodeficiency virus; assay: Binding affinity to HIV wild type integrase using U5 GTCA LTR relative to wild type LTR
[15] = tested on: Human immunodeficiency virus; assay: Inhibition of HIV wild type integrase assessed as strand transfer activity using U5 GTCACA LTR by scintillation proximity assay relative to wild type LTR; design: scale not given: the % may be the effect or the level left
[16] = tested on: Human immunodeficiency virus type 1 integrase (Human immunodeficiency virus 1), Q7ZJM1 [N155H]; assay: Inhibition of HIV recombinant integrase N155H mutant assessed as specific strand transfer activity using U5 GTC LTR by scintillation proximity assay relative to wild type LTR; design: scale not given: the % may be the effect or the level left
[17] = tested on: Human immunodeficiency virus; assay: Inhibition of HIV wild type integrase assessed as strand transfer activity using U5 GTAT LTR by scintillation proximity assay relative to wild type LTR; design: scale not given: the % may be the effect or the level left
[18] = tested on: Human immunodeficiency virus type 1 integrase (Human immunodeficiency virus 1), Q7ZJM1 [N155H]; assay: Inhibition of HIV recombinant integrase N155H mutant assessed as specific strand transfer activity using U5 GTCA LTR by scintillation proximity assay relative to wild type LTR; design: scale not given: the % may be the effect or the level left
[19] = tested on: Human immunodeficiency virus; assay: Binding affinity to HIV wild type integrase using U5 GTCA/CddC LTR relative to wild type LTR
[20] = tested on: Human immunodeficiency virus; assay: as §2; design: scale not given: the % may be the effect or the level left; remark: listed apart in the source
[21] = tested on: Human immunodeficiency virus; assay: Inhibition of HIV wild type integrase assessed as specific strand transfer activity using U5 GTGA LTR by scintillation proximity assay relative to wild type LTR; design: scale not given: the % may be the effect or the level left
[22] = tested on: Human immunodeficiency virus type 1 integrase (Human immunodeficiency virus 1), Q7ZJM1 [Q148R]; assay: Inhibition of HIV recombinant integrase Q148R mutant assessed as strand transfer activity using U5 GTCA LTR by scintillation proximity assay relative to wild type LTR; design: scale not given: the % may be the effect or the level left
[23] = tested on: Human immunodeficiency virus; assay: Binding affinity to HIV wild type integrase using U5 GTGC LTR relative to wild type LTR
[24] = tested on: Human immunodeficiency virus; assay: Inhibition of HIV wild type integrase assessed as strand transfer activity using U5 GTGT LTR by scintillation proximity assay relative to wild type LTR; design: scale not given: the % may be the effect or the level left
[25] = tested on: Human immunodeficiency virus type 1 integrase (Human immunodeficiency virus 1), Q7ZJM1 [N155H]; assay: Binding affinity to HIV recombinant integrase N155H mutant using U5 dTCA LTR relative to wild type LTR
[26] = tested on: Human immunodeficiency virus type 1 integrase (Human immunodeficiency virus 1), Q7ZJM1 [Q148R]; assay: Binding affinity to HIV recombinant integrase Q148R mutant using U5 GTCA LTR relative to wild type LTR
[27] = tested on: Human immunodeficiency virus; assay: Inhibition of HIV wild type integrase assessed as strand transfer activity using U5 GCCA LTR by scintillation proximity assay relative to wild type LTR; design: scale not given: the % may be the effect or the level left
[28] = tested on: Human immunodeficiency virus; assay: Binding affinity to HIV wild type integrase using U5 TTCA LTR relative to wild type LTR
[29] = tested on: Human immunodeficiency virus type 1 integrase (Human immunodeficiency virus 1), Q7ZJM1 [Q148R]; assay: Inhibition of U5 GTC LTR HIV recombinant integrase Q148R mutant assessed as specific strand transfer activity using by scintillation proximity assay relative to wild type LTR; design: scale not given: the % may be the effect or the level left
[30] = tested on: Human immunodeficiency virus type 1 integrase (Human immunodeficiency virus 1), Q7ZJM1 [N155H]; assay: Inhibition of HIV recombinant integrase N155H mutant assessed as specific strand transfer activity using U5 GddA LTR by scintillation proximity assay relative to wild type LTR; design: scale not given: the % may be the effect or the level left
[31] = tested on: Human immunodeficiency virus; assay: Inhibition of HIV wild type integrase assessed as specific strand transfer activity using U5 dTCA LTR by scintillation proximity assay relative to wild type LTR; design: scale not given: the % may be the effect or the level left
[32] = tested on: Human immunodeficiency virus type 1 integrase (Human immunodeficiency virus 1), Q7ZJM1 [N155H]; assay: Binding affinity to HIV recombinant integrase N155H mutant using U5 GTdA LTR relative to wild type LTR
[33] = tested on: Human immunodeficiency virus; assay: Inhibition of HIV wild type integrase assessed as strand transfer activity using U5 GTCT LTR by scintillation proximity assay relative to wild type LTR; design: scale not given: the % may be the effect or the level left
[34] = tested on: Human immunodeficiency virus; assay: Binding affinity to HIV wild type integrase using U5 GTCA/CT LTR relative to wild type LTR
[35] = tested on: Human immunodeficiency virus; assay: Inhibition of HIV wild type integrase assessed as strand transfer activity using U5 GInCA LTR by scintillation proximity assay relative to wild type LTR; design: scale not given: the % may be the effect or the level left
[36] = tested on: Human immunodeficiency virus; assay: Inhibition of HIV wild type integrase assessed as specific strand transfer activity using U5 GGCA LTR by scintillation proximity assay relative to wild type LTR; design: scale not given: the % may be the effect or the level left
[37] = tested on: Human immunodeficiency virus; assay: Binding affinity to HIV wild type integrase using U5 ApTCA LTR relative to wild type LTR
[38] = tested on: Human immunodeficiency virus; assay: Inhibition of HIV wild type integrase assessed as strand transfer activity U5 GTCA/CC LTR by scintillation proximity assay relative to wild type LTR; design: scale not given: the % may be the effect or the level left
[39] = tested on: Human immunodeficiency virus type 1 integrase (Human immunodeficiency virus 1), Q7ZJM1 [N155H]; assay: Inhibition of HIV recombinant integrase N155H mutant assessed as strand transfer activity using U5 GTC LTR by scintillation proximity assay relative to wild type LTR; design: scale not given: the % may be the effect or the level left
[40] = tested on: Human immunodeficiency virus; assay: Binding affinity to HIV wild type integrase using U5 GTCA/CC LTR relative to wild type LTR
[41] = tested on: Human immunodeficiency virus; assay: Inhibition of HIV wild type integrase assessed as strand transfer activity using U5 GdCA LTR by scintillation proximity assay relative to wild type LTR; design: scale not given: the % may be the effect or the level left
[42] = tested on: Human immunodeficiency virus; assay: Inhibition of HIV wild type integrase assessed as strand transfer activity using U5 GTC LTR by scintillation proximity relative; design: scale not given: the % may be the effect or the level left
[43] = tested on: Human immunodeficiency virus; assay: Inhibition of HIV wild type integrase assessed as specific strand transfer activity using U5 GdC LTR by scintillation proximity assay relative to wild type LTR; design: scale not given: the % may be the effect or the level left
[44] = tested on: Human immunodeficiency virus type 1 integrase (Human immunodeficiency virus 1), Q7ZJM1 [N155H]; assay: Inhibition of HIV recombinant integrase N155H mutant assessed as specific strand transfer activity using U5 INTCA LTR by scintillation proximity assay relative to wild type LTR; design: scale not given: the % may be the effect or the level left
[45] = tested on: Human immunodeficiency virus type 1 integrase (Human immunodeficiency virus 1), Q7ZJM1 [Q148R]; assay: Inhibition of HIV recombinant integrase Q148R mutant assessed as strand transfer activity using U5 INTCA LTR by scintillation proximity assay relative to wild type LTR; design: scale not given: the % may be the effect or the level left

Cn1c(N2CCCCS2(=O)=O)nc(C(=O)NCc2ccc(F)cc2)c(O)c1=O [BMS-707035]
Activity [1]: 2.5% | Activity [2]: 86% | Activity [3]: 51% | Activity [4]: 25% | Activity [5]: < 25% | Activity [6]: 23% | Activity [7]: 25% | Activity [8]: 62% | Activity [9]: 22% | Activity [10]: < 25% | Activity [11]: 103% | Activity [12]: 0.4% | Activity [13]: 93% | Activity [14]: 75% | Activity [15]: 75% | Activity [16]: 107% | Activity [17]: < 25% | Activity [18]: 82% | Activity [19]: 75% | Activity [20]: 28% | Activity [21]: 136% | Activity [22]: 26% | Activity [23]: 25% | Activity [24]: 25% | Activity [25]: 2% | Activity [26]: 3% | Activity [27]: 75% | Activity [28]: 8% | Activity [29]: 83% | Activity [30]: 3% | Activity [31]: 67% | Activity [32]: 12% | Activity [33]: 75% | Activity [34]: < 25% | Activity [35]: 70% | Activity [36]: 8% | Activity [37]: 24% | Activity [38]: < 25% | Activity [39]: 90% | Activity [40]: 75% | Activity [41]: 70% | Activity [42]: 109% | Activity [43]: 19% | Activity [44]: 135% | Activity [45]: 0.6%
